Consider three compounds from patent US12473250B2, “Molecular design of new antibiotics and antibiotic adjuvants against MCR strains” (priority 2019, dated 2025).

In brackets after ≈: the same amount, converted by molar mass. Like-named read-outs stand apart in the source and are kept apart here. A value given as a limit tells only on which side of the number the result lay.

Assay [1] has as its system MCR positive E. coli Clinical isolate 6083655967. The format is in vivo. The note with it: neutropenic mice, i.p. 1 hour after infection, 6 hours after treatment; colistin 10 mg/kg, LC100 50 mg/kg, meropenem 100 mg/kg, combination 50 + 10 mg/kg. On the procedure:
FIG. 21 refers to graphs showing the efficacy testing of combination of LC100 and Colistin in neutropenic mouse thigh infection model infected with MCR positive E. coli Clinical isolate 6083655967. Starting inoculum was 1.87×10^6, N=3. “Combination” refers to Colistin 10 mg/kg+LC100 50 mg/kg. Each treatment was done intraperitoneally 1 hour after infection. 6 hours after treatment, mouse thigh tissues were homogenized for viable CFU.
The combination of colistin and antimicrobial peptide (LC100) was tested against E. coli clinical isolate MCR-positive strain 6083655967 in a neutropenic mouse thigh infection model. C57BL/6 mice were rendered neutropenic by cyclophosphamide, dosed at 150 and 100 mg kg-1 delivered on days −4 and −1 prior to infection. Bacteria were suspended in sterile saline and adjusted to a concentration of ˜1.876×10^6 CFU per infection site (100 micro-liters) and injected intramuscularly into the right thigh of five mice per treatment group. At 1 h post infection, mice received colistin ([…], i.p. n=5), LC100 (50 mg kg-1, i.p. n=5), untreated (n=5), or the combination (n=5). Mice were euthanized 6 h after infection; thigh tissue was aseptically collected, homogenized, serially diluted in PBS and plated onto solid TSA supplemented plates. Plates were incubated overnight at 37° C. and colonies were quantified to determine bacterial load.
To evaluate the in vivo efficacy of the combination of LC100 and colistin, a neutropenic mouse thigh infection model was used. 30 mice were classed into 5 groups: control, colistin at 10 mg/kg, LC100 at 50 mg/kg, meropenem at 100 mg/kg and combination of 50 mg/kg of LC100 and 10 mg/kg of colistin. Each treatment was administered intraperitoneally 1 hour after infection. The starting inoculum was 1.87×10^6, and 6 hours after treatment, mouse thigh tissues were homogenized for viable CFU. […] As neutropenic mice were used in the study, the 1.2 log reduction in bacterial burden is due to the combination of LC100 and colistin rather than the immune system of the mouse.

The subject of assay [2] is various pathogens. The assay is described as follows: organism not typed. Format: cell-based. The method, then:
The MICs of the individual drugs and LC compound in combinations were determined using the broth microdilution technique as recommended by the CLSI whereby the two anti-microbial agents were added in an equal amount. (e.g.: 50 μL of Colistin: 50 μL of LC compounds). Diluted media containing compounds and antibiotics will be serially diluted 2-fold, and LC compounds and antibiotics alone or in combination will be assayed at fixed synergy concentration. In all cases, the lowest concentration at which no visible growth occurred was be recorded to be the MIC value of individual and combined antibacterial agents. The results were obtained after 24 hours of incubation.
Using the combination of LC100 and colistin, the activity of a broad range of strains was further tested (Table 7).

For assay [3], the system named is EC strains (CRE strains, colistin sensitive). The assay is described as follows: MIC of polymyxin B or colistin alone (Table 4). Format: cell-based, E. coli. The arrangement: unit: μg/mL. The method, then:
(§1) MIC experiments of the antimicrobial agents were determined by a modified broth microdilution method in accordance with the Clinical and Laboratory Standards Institute (CLSI) guidelines using 96 well culture plates. In brief, serial dilutions of all plates were prepared at different concentrations (μg). The inoculum suspension was prepared by adding isolated colonies from a 18-20 hours on TSA plate into phosphate buffer (0.31 mM, pH 7.2) or in water for injection (BBraun) and adjusting the suspension to a turbidity equivalent to 0.5 McFarland Standard. Each well contained a final bacterial concentration of approximately 5×10^5 colony forming units (CFU)/mL. The plate was covered and incubated at 35° C. for 24 hours. […] For the microdilution plates, turbidity in wells can be measured at OD600 using TECAN infinite M200Pro. MIC was determined as […] concentration that gives a 99 percent inhibition.

The test system of assay [4] is PAE strains (CRE strains, colistin sensitive). The assay is described as follows: MIC of polymyxin B or colistin alone (Table 4). The format is cell-based, P. aeruginosa. The arrangement: unit: μg/mL. On the procedure: as §1
Assay [5] deals with ENT CLOACAE multi-drug resistant strains. The assay is described as follows: MIC against multi-drug resistant strains (Table 5). The format is cell-based, E. cloacae. The note with it: Enterobacter cloacae, alone, read-out: MIC. The method, then: as §1
Assay [6] relates to KLPN multi-drug resistant strains. The assay is described as follows: MIC against multi-drug resistant strains (Table 5). The format is cell-based, Klebsiella pneumonia. To be noted: Klebsiella pneumoniae, alone, read-out: MIC. The method, then:
as §1

Assay [7] has as its system ACBA multi-drug resistant strains. The assay is described as follows: MIC against multi-drug resistant strains (Table 5). The format is cell-based, Acinetobacter baumannii. The note with it: Acinetobacter baumannii. On the procedure: as §1
[8] abbreviates: Escherichia coli, 6083655967 [MCR 1+, E. Coli].
The mark [9] stands for this setting: Escherichia coli, 6093560257 [MCR 1+, E. Coli, NDM-1].
The mark [10] stands for this setting: Escherichia coli, 6123520276 [MCR 1+, E. Coli].
The mark [11] stands for this setting: Escherichia coli, 7023436560 [MCR 1+, E. Coli].
The mark [12] stands for this setting: Escherichia coli, 7023444207 [MCR 1+, E. Coli].
The mark [13] stands for this setting: Escherichia coli, 7023446108 [MCR 1−, E. Coli].
[14] abbreviates: Escherichia coli, 7033607097 [MCR 1−, E. Coli].
The mark [15] stands for this setting: Escherichia coli, 7103531927 [MCR 1+, E. Coli, KPC+].
[16] abbreviates: Escherichia coli, 7113636863 [MCR 1+, E. Coli, NDM-1].

For the compound `C[C@@H](O)[C@H]1C(=O)N2C(C(=O)O)=C(S[C@@H]3CN[C@H](C(=O)N(C)C)C3)[C@H](C)[C@H]12` [meropenem], the “reduction in bacterial burden” value in assay [1] worked out at 2 log. Moreover, the MIC was 1.56 µg/mL in assay [2] (ACBA 1010 (CI)); less than 0.0975 µg/mL in assay [2] (setting [8]); more than 50 µg/mL in assay [2] (setting [9]); less than 0.0975 µg/mL in assay [2] (setting [10]); less than 0.0975 µg/mL in assay [2] (setting [11]); less than 0.0975 µg/mL in assay [2] (setting [12]). Also, the MIC in assay [2] (setting [13]) was less than 0.0975 µg/mL; in assay [2] (setting [14]), less than 0.0975 µg/mL; in assay [2] (setting [15]), 25 µg/mL; in assay [2] (setting [16]), 50 µg/mL; in assay [2] (Escherichia coli, E. Coli CRE 11804) it was more than 25 µg/mL; in assay [2] (Escherichia coli, E. Coli CRE 17232, ⅙ MHB), less than 0.195 µg/mL. For the same compound, the MIC in assay [2] (Escherichia coli, E. Coli CRE 17528) was 1.56 µg/mL; in assay [2] (KLPN CRE 7955) it was more than 25 µg/mL; in assay [2] (KLPN CRE 16260), more than 50 µg/mL; in assay [2] (KLPN CRE 27025), more than 50 µg/mL; in assay [2] (KLPN CRE 55301) it was 0.39 µg/mL; in assay [2] (PAE DM 4150) it was 1.56 µg/mL. Further, the MIC in assay [2] (PAE DM 23155) was 0.195 µg/mL; in assay [2] (PAE DM 23257), 0.78 µg/mL; in assay [2] (PAE DM 23376), 0.39 µg/mL; in assay [2] (PAE DR 4877), 1.56 µg/mL; in assay [2] (PAE DR 5790), 6.25 µg/mL; in assay [2] (PAE DU 14476) it was more than 25 µg/mL.
Regarding Polymyxin B, the “MIC (antibiotic alone)” value was determined as 0.195 in assay [3] (strain EC 17232); 0.78 in assay [3] (strain EC 17528); 1.56 in assay [3] (strain EC 19963); 1.56 in assay [4] (strain PAE 4877); 1.56 in assay [4] (strain PAE 5790); 1.56 in assay [4] (strain PAE 14476).
For the compound `C[C@@H](O)[C@H]1C(=O)N2C(C(=O)O)=C(SCCN=CN)C[C@H]12` [Imipenem], the MIC in assay [2] (ACBA 1010 (CI)) is 25 µg/mL; in assay [2] (ACBA ATCC 19606) it was 25 µg/mL; in assay [2] (ACBA DR 43357) it was more than 50 µg/mL; in assay [2] (setting [8]), 0.0975 µg/mL; in assay [2] (setting [9]) it was 12.5 µg/mL; in assay [2] (setting [10]), less than 0.0975 µg/mL. The MIC in assay [2] (setting [11]) was less than 0.0975 µg/mL; in assay [2] (setting [12]), 0.0975 µg/mL; in assay [2] (setting [13]), 0.0975 µg/mL; in assay [2] (setting [14]), 0.195 µg/mL; in assay [2] (setting [15]), 6.25 µg/mL; in assay [2] (setting [16]) it was 12.5 µg/mL. The MIC in assay [2] (KLPN CRE 15588) is more than 50 µg/mL; in assay [2] (KLPN CRE 27025), more than 50 µg/mL; in assay [2] (PAE DM 4150) it was 3.12 µg/mL; in assay [2] (PAE DM 23155) it was 0.78 µg/mL; in assay [2] (PAE DM 23257), 0.78 µg/mL; in assay [2] (PAE DM 23376) it was 1.56 µg/mL. Besides, the MIC in assay [2] (PAE DR 4877) is 1.56 µg/mL; in assay [2] (PAE DR 5790), 6.25 µg/mL; in assay [2] (PAE DU 14476), more than 25 µg/mL; in assay [5] (strain ENT CLOACAE 6780), more than 50 µg/mL; in assay [5] (strain ENT CLOACAE 21489), more than 50 µg/mL; in assay [5] (strain ENT CLOACAE 30063), more than 50 µg/mL. For the same compound, the MIC was more than 50 µg/mL in assay [5] (strain ENT CLOACAE 44095); more than 50 µg/mL in assay [6] (strain KLPN 8852); more than 50 µg/mL in assay [6] (strain KLPN 15588); more than 50 µg/mL in assay [6] (strain KLPN 24076); more than 50 µg/mL in assay [6] (strain KLPN 27025); 12.5 µg/mL (≈ 41.8 µM) in assay [7]. Also, the MIC in assay [7] (ATCC19606, strain ACBA ATCC 19606, alone, read-out: MIC) was 25 µg/mL (≈ 83.5 µM); in assay [7] (strain ACBA 1012, alone, read-out: MIC), more than 50 µg/mL; in assay [7] (strain ACBA 43357, alone, read-out: MIC), more than 50 µg/mL.
